# Tests used:
# Format in all cases: cell-based
# MMP-13 = MMP-13 ELISA on supernatants of chondrocytes stimulated with IL-1β; conditions: Homo sapiens, Chondrocyte; chondrocytes pretreated 2 hours, IL-1β 24 hours; protein (ELISA); N/A = did not affect MMP levels; read-out: IC50 constants for inhibition of MMP activity, MMP-13
# Procedure: (§1) The effects of dendrimer compounds comprising n-acyl urea terminal moieties (i.e., dd-NAU) were evaluated for MMP activity in chondrocytes. […] In some instances, these effects were compared to dendrimer compounds comprising glucosamine terminal moieties (i.e., dd-Gln) and/or ethyl dimethylaminopropylurea (EDU). Chondrocytes were grown to confluency in 6-well plates (4 donors). The chondrocytes were pretreated with dendrimers (e.g., dd-NAU or dd-Gln) or EDU for 2 hours and then stimulated with IL-1β for 24 hours. Supernatants were collected and MMP-1, -3, and 13 ELISA assays were performed. The cells were collected for RNA analysis (3 donors).
# (§2) Chondrocytes were grown to confluency in 6-well plates (2 donors). […] Supernatants were collected and MMP-1, -3, and 13 ELISA assays were performed. Neutral Red assays and Calcien AM assays were also performed on the chondrocytes to determine cell viability.
# MMP-1 = MMP-1 ELISA on supernatants of chondrocytes stimulated with IL-1β; conditions: Homo sapiens, Chondrocyte; chondrocytes pretreated 2 hours, IL-1β 24 hours; protein (ELISA); N/A = did not affect MMP levels; read-out: IC50 constants for inhibition of MMP activity, MMP-1
# Procedure: as §1, §2
# MMP-3 = MMP-3 ELISA on supernatants of chondrocytes stimulated with IL-1β; conditions: Homo sapiens, Chondrocyte; chondrocytes pretreated 2 hours, IL-1β 24 hours; protein (ELISA); N/A = did not affect MMP levels; read-out: IC50 constants for inhibition of MMP activity, MMP-3
# Procedure: as §1, §2
structure (smiles),measurement,setting,value
N[C@H]1C(O)O[C@H](CO)[C@@H](O)[C@@H]1O (stereo partly drawn) [Glucosamine],IC50,MMP-13,1400 µM
same,IC50,MMP-1,1420 µM
same,IC50,MMP-3,600 µM
